Laboratory results published in patent US10704076B2, “Multi-tiered high through-put screen for compounds effective against bacterial biofilm and compounds effective for inhibiting and eradicating bacterial biofilm” (University of Cincinnati, priority 2013, dated 2020).
Values after ≈ are worked out from the molar mass of the structure shown.

Experiments:
[1] = test system: P. aeruginosa biofilm; assay: HTS total biofilm formation assay (crystal violet staining); type: cell-based, Pseudomonas aeruginosa; details: for AC50: 10 point dose-response 0.1-50 μM
From the text: (§1) Each HTS tier consisted of: (i) primary screening, (ii) confirmation screening and (iii) dose-response curve screening. Each tier of HTS included three distinct biological process assays. The first assay was an optical density measurement of bacteria growth in the presence of each compound reported as a total bacteria growth. In the second assay, resazurin solution was used as an indicator of metabolic activity to measure the live bacteria in the biofilms, reported as live biofilm. The final assay was crystal violet staining, which indicated the amount of biofilm formation and the effect of each compound on this process, reported as total biofilm formation.
(§2) Briefly, stationary phase bacteria grown in L-broth were diluted 1:200 into fresh L-broth and 50 μM of each test compound. After 20-24 hours, the optical density (OD560) of each suspension was measured using Zeiss Plate::Vision with a 560 BP filter (560 nm, 2.5% light intensity, 1 mm focus to bottom of plate, and exposure time of 100 ms). To measure bacterial viability in the biofilm, 50 μl of a 5 mg/ml resazurin solution in L-broth was added to each well after washing 3 times with 50 μl of PBS. The plates were then incubated at 37° C. for 30 or 180 min for A. baumannii and P. aeruginosa biofilms, respectively. Fluorescence was measured using Zeiss Plate::Vision at excitation and emission wavelengths of 535 and 580 nm, 100 ms exposure time, 2.5% intensity and a 2 mm focus to the bottom of the biofilms. To assess biofilm formation, plates were washed 3 times with PBS and then 50 μl of 0.01% of crystal violet was added to each well to assess bacterial biofilm formation as described in a similar borosilicate tube assay by O'Toole and Kolter. After incubation at room temperature for 30 min and removal of the crystal violet solution by washing with PBS, 95% ethanol was added to solubilize the crystal violet followed by incubation for 20 min at room temperature. Finally, the optical density of each plate was determined using measured by Zeiss Plate::Vision using the same settings used to measure total bacterial growth. These 3 steps were used in each of the three tiers for the HTS process: (i) single point primary screening at 10 μM, (ii) triplicate confirmation of hits from (i) at 10 μM and (iii) determination of AC50 values in 10 point dose-response at a concentration range of 0.1-50 μM) in hits from (ii). The AC50 represents the concentration of compound that inhibits 50% of bacterial growth, bacterial viability, or biofilm formation. Genedata Screener® Assay Analyzer Software (Ver. 9.0.0 Standard) was used to analyze data from all assay tiers. Compounds with an AC50 of less than 20 μM in one of the biological assays from the dose response screen were subject to additional investigation.

[2] = test system: P. aeruginosa biofilm; assay: HTS live biofilm assay (resazurin metabolic activity); type: cell-based; details: Pseudomonas aeruginosa, 10 point dose-response 0.1-50 μM
From the text: as §1, §2

[3] = test system: A. baumannii; assay: MIC determination (CLSI, Mueller Hinton broth), planktonic cultures; type: cell-based, Acinetobacter baumannii; details: MH, Aerobic; for MIC: Acinetobacter baumannii, read-out: Minimum Inhibition Concentration
Procedure: A standard protocol for determining the MIC of a specific compound as outlined by the Clinical and Laboratory Standards Institute (CLSI) was used, based on growth of the selected bacteria in Mueller Hinton (MH) broth with subsequent 2-fold dilutions of compounds of interest. Following the CLSI protocols, the MIC of each broad spectrum “hit” compound was performed in all 3 bacterial species in both aerobic and anaerobic conditions. All bacteria were grown in MH broth for 18 hrs at 37° C. The cells were then diluted 100-fold into MH broth containing compounds at concentrations ranging from 0.40-50 μM in the presence of either KNO3 or glucose to allow bacterial growth under anaerobic condition. After 24 hrs of incubation, cell growth was measured at OD600 using a SpectraMax 190 Absorbance Microplate Reader.
The HTS and CLSM assays identified and confirmed compounds that can inhibit biofilms formation in aerobic growth conditions. However, P. aeruginosa and S. epidermidis are capable of growth under anaerobic as well as aerobic conditions. […] The Minimal Inhibitory Concentrations (MIC) of the four broad agent hit compounds under both aerobic and anaerobic conditions of planktonic P. aeruginosa and S. epidermidis cultures were determined to evaluate compound efficacy in different growth conditions. The MICs for A. baumannii were determined only in aerobic conditions. To examine growth in aerobic conditions, bacteria were grown in either Mueller Hinton (MH) media only, MH media in the presence of 1% KNO3, or MH in the presence of 1% glucose. For MIC determinations under anaerobic conditions, growth was examined in MH media with 1% KNO3 or with 1% glucose.

SMILES	AC50 ([1]; Pseudomonas aeruginosa) [µM]	AC50 [2] [µM]	MIC [3] [µM]	Minimum Inhibition Concentration [3] [µM]	AC50 [1] [µM]	HTS assay results: Biofilm Formation ([1]; Y / —)
NC(=S)N1CCN(c2cc3c(cc2F)c(=O)c(C(=O)O)cn3C2CC2)CC1 [Compound 7, 7-(4-carbamothioylpiperazin-1-yl)-1-cyclopropyl-6-fluoro-4-oxoquinoline-3-carboxylic acid]	7.81	0.38	16 (≈ 6.25 µg/mL)	16.67 ± 4.17		
Cn1sc(Cl)c(C#N)c1=O [Compound 3, 5-chloro-2-methyl-3-oxo-1,2-thiazole-4-carbonitrile]	3.07	13.4	5 to 6 (≈ 0.873 to 1.05 µg/mL)	6.25 ± 2.21		
O=C(O)c1cn(C2CC2)c2c(F)c(N3CC(O)C3)c(F)cc2c1=O [Compound 8, 1-cyclopropyl-6,8-difluoro-7-(3-hydroxyazetidin-1-yl)-4-oxoquinoline-3-carboxylic acid]		57	~1 (≈ 0.336 µg/mL)		10.3	—* (AC50 higher than 20 μM)
O=C(O)c1cn(C2CC2)c2c(F)c(-c3ccncc3)c(F)cc2c1=O [Compound 11, 7-(4-pyridyl)-1-cyclopropyl-6,8-difluoro-4-oxoquinoline-3-carboxylic acid]	7.4	9.6	5 to 6 (≈ 1.71 to 2.05 µg/mL)	5.12 ± 1.04		
